According to PubChem BioAssay AID1963840 (Molecular Pharmacology Branch, DTP, NCI, 2024):

Tested on: 695427-040-R-J1-PDC complex spheroid viability
Assay: Anticancer human tumor 695427-040-R-J1-PDC patient-derived colon adenocarcinoma cell line growth inhibition [POLQ]
Settings: for IC50: curve of first compound; for viability, T/C: stronger effect = lower value
Method in brief: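 Patient-derived tumour cells were co-cultured with HUVEC and mesenchymal stem cells as multicellular spheroids at 37 °C. They were treated with POLQ inhibitors (novobiocin, ART-558, RP6685) alone or combined with other agents. Top concentrations were at or near clinical Cmax (otherwise 10 microM; SN-38 at 1 microM), decreasing in half-log steps.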

[1] = second compound 0.0316 µM, first compound 0.0316 µM
[2] = second compound 0.0316 µM, first compound 0.1 µM
[3] = second compound 0.0316 µM, first compound 0.316 µM
[4] = second compound 0.0316 µM, first compound 1 µM
[5] = second compound 0.0316 µM, first compound 3.16 µM
[6] = second compound 0.0316 µM, first compound 10 µM
[7] = second compound 0.1 µM, first compound 0.0316 µM
[8] = second compound 0.1 µM, first compound 0.1 µM
[9] = second compound 0.1 µM, first compound 0.316 µM
[10] = second compound 0.1 µM, first compound 1 µM
[11] = second compound 0.1 µM, first compound 3.16 µM
[12] = second compound 0.1 µM, first compound 10 µM
[13] = second compound 0.316 µM, first compound 0.0316 µM
[14] = second compound 0.316 µM, first compound 0.1 µM
[15] = second compound 0.316 µM, first compound 0.316 µM
[16] = second compound 0.316 µM, first compound 1 µM
[17] = second compound 0.316 µM, first compound 3.16 µM
[18] = second compound 0.316 µM, first compound 10 µM
[19] = second compound 1 µM, first compound 0.0316 µM
[20] = second compound 1 µM, first compound 0.1 µM
[21] = second compound 1 µM, first compound 0.316 µM
[22] = second compound 1 µM, first compound 1 µM
[23] = second compound 1 µM, first compound 3.16 µM
[24] = second compound 1 µM, first compound 10 µM
[25] = second compound 3.16 µM, first compound 0.0316 µM
[26] = second compound 3.16 µM, first compound 0.1 µM
[27] = second compound 3.16 µM, first compound 0.316 µM
[28] = second compound 3.16 µM, first compound 1 µM
[29] = second compound 3.16 µM, first compound 3.16 µM
[30] = second compound 3.16 µM, first compound 10 µM
[31] = second compound 10 µM, first compound 0.0316 µM
[32] = second compound 10 µM, first compound 0.1 µM
[33] = second compound 10 µM, first compound 0.316 µM
[34] = second compound 10 µM, first compound 1 µM
[35] = second compound 10 µM, first compound 3.16 µM
[36] = second compound 10 µM, first compound 10 µM
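Further: spheroids exposed to compounds for seven days.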
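Wherever viability, T/C is given: 100% = DMSO vehicle control viability.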

`COc1cc(C2c3cc4c(cc3C(OC3OC5COC(C)OC5C(O)C3O)C3COC(=O)C23)OCO4)cc(OC)c1O` (stereo not drawn) + Cc1cccc(N(C)C(=O)C2C(O)CCN2c2nc(C)cc(C(F)(F)F)c2C#N)c1 was tested, and the IC50 (second compound 0.0316 µM) was > 10 µM, the IC50 (second compound 0.1 µM) was > 10 µM and the IC50 (second compound 0.316 µM) was > 10 µM. The IC50 (second compound 1 µM) was > 10 µM, the IC50 (second compound 3.16 µM) was > 10 µM and the IC50 (second compound 10 µM) was > 10 µM. It also gave a viability, T/C [1] of 104%, a viability, T/C [2] of 89.7% and a viability, T/C [3] of 107%. The viability, T/C [4] was 108%, the viability, T/C [5] was 92.3% and the viability, T/C [6] was 81.3%. It also gave a viability, T/C [7] of 96.4%, a viability, T/C [8] of 92.6% and a viability, T/C [9] of 102%. It also gave a viability, T/C [10] of 93.4%, a viability, T/C [11] of 96.1% and a viability, T/C [12] of 84.7%. It also gave a viability, T/C [13] of 95.7%, a viability, T/C [14] of 89.8% and a viability, T/C [15] of 102%. For the same compound, the viability, T/C [16] was 89.8%, the viability, T/C [17] was 93.2% and the viability, T/C [18] was 81.9%. It also gave a viability, T/C [19] of 96.2%, a viability, T/C [20] of 98.7% and a viability, T/C [21] of 89.9%. The viability, T/C [22] was 87.9%, the viability, T/C [23] was 91.9% and the viability, T/C [24] was 77.1%. The viability, T/C [25] was 92.8%, the viability, T/C [26] was 102% and the viability, T/C [27] was 93.4%. For the same compound, the viability, T/C [28] was 91.5%, the viability, T/C [29] was 89.6% and the viability, T/C [30] was 80.8%. It also gave a viability, T/C [31] of 98%, a viability, T/C [32] of 80.5% and a viability, T/C [33] of 90%. The viability, T/C [34] was 86.8%, the viability, T/C [35] was 84.3% and the viability, T/C [36] was 71.1%.

For `Nc1ccn(C2OC(CO)C(O)C2(F)F)c(=O)n1` (stereo not drawn) + Cc1cccc(N(C)C(=O)C2C(O)CCN2c2nc(C)cc(C(F)(F)F)c2C#N)c1, the IC50 (second compound 0.0316 µM) was > 10 µM, the IC50 (second compound 0.1 µM) was > 10 µM and the IC50 (second compound 0.316 µM) was > 10 µM. For the same compound, the IC50 (second compound 1 µM) was > 10 µM, the IC50 (second compound 3.16 µM) was > 10 µM and the IC50 (second compound 10 µM) was > 10 µM. The viability, T/C [1] was 83%, the viability, T/C [2] was 79.4% and the viability, T/C [3] was 76.4%. It also gave a viability, T/C [4] of 72.6%, a viability, T/C [5] of 68% and a viability, T/C [6] of 52.4%. For the same compound, the viability, T/C [7] was 93.8%, the viability, T/C [8] was 87.9% and the viability, T/C [9] was 77.4%. The viability, T/C [10] was 70.8%, the viability, T/C [11] was 63.5% and the viability, T/C [12] was 54.2%. The viability, T/C [13] was 103%, the viability, T/C [14] was 87.8% and the viability, T/C [15] was 71.2%. The viability, T/C [16] was 72.8%, the viability, T/C [17] was 66.3% and the viability, T/C [18] was 55.8%. For the same compound, the viability, T/C [19] was 90.9%, the viability, T/C [20] was 82.7% and the viability, T/C [21] was 71%. It also gave a viability, T/C [22] of 70.8%, a viability, T/C [23] of 66.5% and a viability, T/C [24] of 55.1%. The viability, T/C [25] was 91.8%, the viability, T/C [26] was 80.8% and the viability, T/C [27] was 75.5%. The viability, T/C [28] was 68.3%, the viability, T/C [29] was 70.2% and the viability, T/C [30] was 57.6%. The viability, T/C [31] was 84.9%, the viability, T/C [32] was 86.4% and the viability, T/C [33] was 75.6%. For the same compound, the viability, T/C [34] was 72.5%, the viability, T/C [35] was 69.5% and the viability, T/C [36] was 58.5%.

With `O=C(c1cc(Cc2n[nH]c(=O)c3ccccc23)ccc1F)N1CCN(C(=O)C2CC2)CC1` + Cc1cccc(N(C)C(=O)C2C(O)CCN2c2nc(C)cc(C(F)(F)F)c2C#N)c1 the IC50 (second compound 0.0316 µM) was > 10 µM, the IC50 (second compound 0.1 µM) was > 10 µM and the IC50 (second compound 0.316 µM) was > 10 µM. For the same compound, the IC50 (second compound 1 µM) was > 10 µM, the IC50 (second compound 3.16 µM) was > 10 µM and the IC50 (second compound 10 µM) was > 10 µM. It also gave a viability, T/C [1] of 107%, a viability, T/C [2] of 98.3% and a viability, T/C [3] of 101%. For the same compound, the viability, T/C [4] was 103%, the viability, T/C [5] was 104% and the viability, T/C [6] was 93.9%. For the same compound, the viability, T/C [7] was 111%, the viability, T/C [8] was 101% and the viability, T/C [9] was 97.9%. It also gave a viability, T/C [10] of 100%, a viability, T/C [11] of 113% and a viability, T/C [12] of 95.3%. For the same compound, the viability, T/C [13] was 109%, the viability, T/C [14] was 101% and the viability, T/C [15] was 99%. For the same compound, the viability, T/C [16] was 93.1%, the viability, T/C [17] was 98.4% and the viability, T/C [18] was 96.9%. It also gave a viability, T/C [19] of 98.5%, a viability, T/C [20] of 94.5% and a viability, T/C [21] of 97.6%. The viability, T/C [22] was 92.8%, the viability, T/C [23] was 101% and the viability, T/C [24] was 91.2%. It also gave a viability, T/C [25] of 103%, a viability, T/C [26] of 94% and a viability, T/C [27] of 102%. For the same compound, the viability, T/C [28] was 91.4%, the viability, T/C [29] was 103% and the viability, T/C [30] was 103%. It also gave a viability, T/C [31] of 89.4%, a viability, T/C [32] of 88% and a viability, T/C [33] of 97.9%. For the same compound, the viability, T/C [34] was 90.4%, the viability, T/C [35] was 92.3% and the viability, T/C [36] was 78.9%.

With `O=c1[nH]cc(F)c(=O)[nH]1` + Cc1cccc(N(C)C(=O)C2C(O)CCN2c2nc(C)cc(C(F)(F)F)c2C#N)c1 the IC50 (second compound 0.0316 µM) was > 10 µM, the IC50 (second compound 0.1 µM) was > 10 µM and the IC50 (second compound 0.316 µM) was > 10 µM. For the same compound, the IC50 (second compound 1 µM) was > 10 µM, the IC50 (second compound 3.16 µM) was > 10 µM and the IC50 (second compound 10 µM) was > 10 µM. It also gave a viability, T/C [1] of 105%, a viability, T/C [2] of 94.5% and a viability, T/C [3] of 95.2%. The viability, T/C [4] was 98.1%, the viability, T/C [5] was 106% and the viability, T/C [6] was 98.2%. It also gave a viability, T/C [7] of 106%, a viability, T/C [8] of 102% and a viability, T/C [9] of 102%. It also gave a viability, T/C [10] of 101%, a viability, T/C [11] of 109% and a viability, T/C [12] of 97%. It also gave a viability, T/C [13] of 112%, a viability, T/C [14] of 102% and a viability, T/C [15] of 99.1%. For the same compound, the viability, T/C [16] was 104%, the viability, T/C [17] was 101% and the viability, T/C [18] was 99.5%. It also gave a viability, T/C [19] of 105%, a viability, T/C [20] of 100% and a viability, T/C [21] of 108%. It also gave a viability, T/C [22] of 101%, a viability, T/C [23] of 93% and a viability, T/C [24] of 88.4%. The viability, T/C [25] was 96%, the viability, T/C [26] was 103% and the viability, T/C [27] was 101%. The viability, T/C [28] was 97.4%, the viability, T/C [29] was 101% and the viability, T/C [30] was 103%. For the same compound, the viability, T/C [31] was 90.6%, the viability, T/C [32] was 94.8% and the viability, T/C [33] was 87.5%. For the same compound, the viability, T/C [34] was 96.3%, the viability, T/C [35] was 92.8% and the viability, T/C [36] was 84.8%.
